Measured values: patent US20090011025A1, “Biotin-Amino Acid Conjugate Useful as a Hydrogelator and Hydrogel Prepared Therefrom” (POSTECH FOUNDATION, priority 2005, published 2009)

Tests used:
[1] = Gelation capability of gelators, stable-to-inversion of container method (minimum gelation concentration, gel stability and clarity); type: physicochemical; parameters: key to minimum gelation concentration (MGC): —: no gel formed; details: for stability of gel (time the gel persisted): in each medium; for stability of gel (time the gel lasted): aqueous media
Experimental: In order to examine the gelation capability of gelators 1 to 11, the degrees of gelation in various aqueous media were measured as follows, in accordance with the “stable-to-inversion of container” method (Menger, F. M. and Caran, K. L., J. Am. Chem. Soc. 2000, 122, 11679).
Specifically, 0.002 to 0.04 g of each gelator and 1 ml of an aqueous medium (distilled water, 0.9% aqueous NaCl solution, 0.01 M hydrochloric buffer (pH 2.0), 0.05 M phthalate buffer (pH 4.0), 0.08 M MOPSO buffer (pH 7.0) or 0.025 M sodium tetraborate buffer (pH 9.0)) were put into a sealed glass tube (5 mm i.d.), and the mixture was heated at 100° C. until a solution was obtained. The tube was then maintained at room temperature for 5 to 10 min.
Then, the minimum gelation concentration (MGC, wt %), i.e., the lowest concentration of a gelator at which it forms a hydrogel, of each gelator compound was determined, and the result is shown in Table 1.

[2] = Textures of the hydrogels/xerogels by scanning electron microscopy (SEM); type: physicochemical; details: gel at MGC in distilled water, freeze-dried
Experimental: The textures of the hydrogels formed by the gelators prepared in the Examples were examined as follows, employing a scanning electron microscopy (SEM).
First, gelators 1 to 11 were each dissolved in 1 ml of distilled water in an amount ranging from 0.003 to 0.02 g to reach the corresponding MGC listed in Table 1, and the mixture was heated at 100° C. to form a hydrogel. The hydrogel was frozen at −78° C., and freeze-dried for 6 hours to obtain a xerogel.

streptavidin = streptavidin (Streptomyces avidinii, UniProt P22629); assay: Influence of ligand-receptor interaction (streptavidin) on the gel state of a hydrogel, SEM; details: 0.002 equivalent of streptavidin, after 1 hour
Experimental: The influence of ligand-receptor interaction on the gel state of hydrogels was examined as follows.
0.002 g of gelator 9 was added to 1 ml of distilled water, and the mixture was heated at 100° C. to form a hydrogel.

[3] = cited from earlier work
[4] = pH 2 (0.01 M hydrochloric buffer)
[5] = pH 9 (0.025 M sodium tetraborate buffer)

| melting point [°C] | minimum gelation concentration (MGC) ([1]; H2O/0.9% NaCl (aq.)) | minimum gelation concentration (MGC) [1, 4] | minimum gelation concentration (MGC) ([1]; pH 4 (0.05 M phthalate buffer)) | minimum gelation concentration (MGC) ([1]; pH 7 (0.08 M MOPSO buffer)) | minimum gelation concentration (MGC) [1, 5] | structure type of hydrogel (xerogel SEM image) [2] | clarity of gel [1] | stability of gel (time the gel lasted) [1] | SMILES | stability of gel (time the gel persisted) [1] | gel state after addition of streptavidin (streptavidin) | molecules of water immobilized by one molecule of gelator ([1]; at MGC in distilled water) | solubility in organic solvents ([3]; organic solvents) | solubility in water ([3]; water) |
| --- | --- | --- | --- | --- | --- | --- | --- | --- | --- | --- | --- | --- | --- | --- |
| 198.5 | 0.6 wt % | 0.8 wt % | 0.8 wt % | 1.7 wt % | 3.5 wt % |  |  |  | CCCCCCC(NC(=O)CCCC[C@@H]1SC[C@@H]2NC(=O)N[C@@H]21)C(=O)O (mixture of isomers) [Gelator 11, N-biotinyl-D,L-2-aminocaprylic acid] |  |  |  |  |  |
| 209 to 210 | 1.6 wt % | 1.4 wt % | 1.8 wt % | 2.8 wt % | 3.6 wt % | fibrous structures | translucent to opaque |  | CC(C)C[C@H](NC(=O)CCCC[C@@H]1SC[C@@H]2NC(=O)N[C@@H]21)C(=O)O [Gelator 2, N-biotinyl-L-leucine] | about 6 months |  |  |  |  |
| 207 | 1.8 wt % | — | — | — | — |  |  |  | CSCC[C@H](NC(=O)CCCC[C@@H]1SC[C@@H]2NC(=O)N[C@@H]21)C(=O)O [Gelator 3, N-biotinyl-L-methionine] |  |  |  |  |  |
| 230 to 233 | 1.2 wt % | 1.0 wt % | 1.2 wt % | 2.7 wt % | 3.9 wt % | lamellar structures | opaque | about 1 week | CC[C@H](C)[C@H](NC(=O)CCCC[C@@H]1SC[C@@H]2NC(=O)N[C@@H]21)C(=O)O [Gelator 4, N-biotinyl-L-isoleucine] |  |  |  |  |  |
| 215 to 216 | 1.4 wt % | 1.0 wt % | 1.4 wt % | 2.7 wt % | 4.0 wt % | lamellar structures | opaque | about 1 week | CC(C)[C@H](NC(=O)CCCC[C@@H]1SC[C@@H]2NC(=O)N[C@@H]21)C(=O)O [Gelator 5, N-biotinyl-L-valine] |  |  |  |  |  |
| 259 to 260 | — | — | — | — | — |  |  |  | O=C(CCCC[C@@H]1SC[C@@H]2NC(=O)N[C@@H]21)N[C@@H](Cc1ccc(O)cc1)C(=O)O [Gelator 6, N-biotinyl-L-tyrosine] |  |  |  |  |  |
| 160 to 161 | — | — | — | — | — |  |  |  | O=C(CCCC[C@@H]1SC[C@@H]2NC(=O)N[C@@H]21)N[C@@H](Cc1c[nH]c2ccccc12)C(=O)O [Gelator 7, N-biotinyl-L-tryptophan] |  |  |  |  |  |
| 255 | 1.2 wt % | 0.9 wt % | 1.2 wt % | 2.5 wt % | 3.8 wt % | lamellar structures | opaque | about 1 week | CCC[C@H](NC(=O)CCCC[C@@H]1SC[C@@H]2NC(=O)N[C@@H]21)C(=O)O [Gelator 8, N-biotinyl-L-norvaline] |  |  |  |  |  |
|  | 0.8 wt % | 0.6 wt % | 1.0 wt % | 2.0 wt % | 4.0 wt % |  |  |  | CCCCCC(NC(=O)CCCC[C@@H]1SC[C@@H]2NC(=O)N[C@@H]21)C(=O)O (stereo partly drawn) [Gelator 10, N-biotinyl-D,L-2-aminoenantic acid] |  |  |  |  |  |
|  |  |  |  |  |  |  |  |  | O=C(O)CCCC[C@@H]1SC[C@@H]2NC(=O)N[C@@H]21 [biotin] |  |  |  | insolubility | 1.0-0.8 mmol/L |

| SMILES | melting point [°C] | minimum gelation concentration (MGC) ([1]; H2O/0.9% NaCl (aq.)) | minimum gelation concentration (MGC) [1, 4] | minimum gelation concentration (MGC) ([1]; pH 4 (0.05 M phthalate buffer)) | minimum gelation concentration (MGC) ([1]; pH 7 (0.08 M MOPSO buffer)) | minimum gelation concentration (MGC) [1, 5] | structure type of hydrogel (xerogel SEM image) [2] | clarity of gel [1] | stability of gel (time the gel lasted) [1] | stability of gel (time the gel persisted) [1] | gel state after addition of streptavidin (streptavidin) | molecules of water immobilized by one molecule of gelator ([1]; at MGC in distilled water) | solubility in organic solvents ([3]; organic solvents) | solubility in water ([3]; water) |
| --- | --- | --- | --- | --- | --- | --- | --- | --- | --- | --- | --- | --- | --- | --- |
| O=C(CCCC[C@@H]1SC[C@@H]2NC(=O)N[C@@H]21)N[C@@H](Cc1ccccc1)C(=O)O [Gelator 1, N-biotinyl-L-phenylalanine] | 205 | 2.0 wt % | 1.5 wt % | 2.0 wt % | 3.0 wt % | 4.0 wt % | fibrous structures | translucent to opaque |  | about 6 months |  |  |  |  |
| CCCC[C@H](NC(=O)CCCC[C@@H]1SC[C@@H]2NC(=O)N[C@@H]21)C(=O)O [Gelator 9, N-biotinyl-L-norleucine] | 172 | 0.3 wt % | 0.2 wt % | 0.5 wt % | 1.2 wt % | 1.5 wt % |  |  |  |  | disrupted | 6,700 molecules of water |  |  |
